Measurements from patent US11958869B2, “Ruthenium arene Schiff-base complexes and uses thereof” (CITY UNIVERSITY OF HONG KONG, priority 2021, dated 2024).
Like-named read-outs stand apart in the source and are kept apart here.

Experiments:
Assay type in all cases: cell-based
MDA-MB-231 mammospheres [1] = assay: Viability of MDA-MB-231 mammospheres, Alamar Blue assay (Table 1); details: for IC50: read-out: IC50 (μM), growth of MDA-MB-231 mammospheres
MCF-7 = assay: cells; details: for IC50: read-out: IC50 (μM) MCF-7 72 h
Procedure: (§1) Cells were seeded in 96-well plates and maintained for 14-16 hours, then were treated with dimethylsulfoxide (DMSO) or test compound at various concentrations (i.e., 0.312, 1.25, 5, 20 μM) for 72 hrs. The cells were then washed with phosphate buffer saline (PBS) twice, added a medium containing 3-(4,5-dimethylthiazol-2-yl)-2,5-diphenyltetrazolium bromide (MTT) at a final concentration of 0.5 mg/mL, and incubated for 4 hr at 37° C. in a humidified incubator containing 5% CO2 in air. Cells having functional succinate dehydrogenase of mitochondria would convert MTT to formazan. Then, the medium was replaced with 100 μL of DMSO for 30 min at room temperature, and the 96-well plate was read by an ELISA reader at 550 nm to get the absorbance density values. The IC50 values of death cell lines were calculated accordingly.
(§2) The Ru^TEN complexes of Example 1 were evaluated for their anti-proliferative properties in two breast cancer cell lines, namely, MCF-7 and MDA-MB-231 cells via MTT assay. […] MCF-7 is a chemotherapy-responsive breast cancer cell line of luminal subtype with high expression of estrogen receptor (ER), whereas MDA-MB-231 is a triple negative breast cancer (TNBC) or basal-like breast cancer cell ine. TNBC is defined as highly invasive cancer that lacks expression of ER, progesterone receptor (PR) and Her-2; it has one of the worst outcomes among all subtypes of breast cancers. The aggressive nature of TNBC may be related to the presence of breast cancer stem cells within the tumor; therefore, MDA-MB-231 cells are often used as a model of mammary cancer stem cells.
(§3) The cytotoxicity of Ru^TEN complexes of Example 1 was compared to that of cisplatin or oxaliplatin, which were known to induce their anticancer effects by the mode of action different from ER stress. Three CSC-selective organic compounds, salinomycin, etoposide and abamectin, were also used for comparison. Briefly, MCF-7 and MDA-MB-231 cells were respectively treated with increasing concentrations of compounds of interest for 24 or 72 hrs and then the cell viability was measured.

MDA-MB-231 = assay: Anti-proliferative activity (MTT assay), MDA-MB-231
Procedure: as §1, §2, §3

MDA-MB-231 mammospheres [2] = assay: Cytotoxicity in MDA-MB-231 mammospheres (Table 2); details: read-out: IC50 (μM) MDA-MB-231 mammospheres 72 h
MCF-7 mammospheres = assay: Mammosphere formation assay, MCF-7; details: for Number of MCF-7 mammospheres / Size (μm) of MCF-7 mammospheres: primary mammospheres grown 96 hr, incubated with compound 72 hrs, >50 μm analyzed; for decrease in number of MCF-7 mammospheres / decrease in size of MCF-7 mammospheres: versus control
Procedure: (§4) Since the breast cancer stem cells formed a mass of colonies in the form of floating spheres without attaching to a surface of a plate, the size and number of the masses were observed by a mammosphere formation assay to determine a cancer-stem-cell-specific effect.
(§5) Single-cell suspension was cultured at a density of 1,000 to 15,000 cells/well using a MammoCult™ Human Medium kit (Stemcell Technologies Inc Vancouver, CA), and the spherical cells were counted and observed under a microscope.
(§6) The mammosphere assay is based on the concept that when cells proliferate in three-dimensional spheroid structures, only cancer cells with stem-like characteristics are able to evade anoikis.

MDA-MB-231 mammospheres [3] = assay: Mammosphere formation assay, MDA-MB-231 primary; details: for Number of MDA-MB-231 mammospheres / Size (μm) of MDA-MB-231 mammospheres: primary mammospheres grown 96 hr, incubated with compound 72 hrs, >50 μm analyzed; for decrease in number of MDA-MB-231 mammospheres / decrease in size of MDA-MB-231 mammospheres: versus control
Procedure: as §4, §5, §6

[4] = test system: MDA-MB-231 secondary mammospheres; assay: Secondary mammosphere formation (self-renewal), MDA-MB-231; details: for Number of MDA-MB-231 secondary mammospheres / Size (μm) of MDA-MB-231 secondary mammospheres: from drug-treated primary mammospheres, grown in drug-free conditions for 7 days; for propensity to form secondary mammospheres: single cells from drug-treated primary mammospheres, 7 days drug-free, FIG. 2
Procedure: To this purpose, drug-treated primary MDA-MB-231 mammospheres were dissociated into single cell suspensions and incubated for 7 days in ultralow attachment drug-free conditions.

[5] = test system: ALDHbright subpopulation of MDA-MB-231 cells; assay: ALDEFLUOR assay (ALDH activity); details: versus control, FIG. 3
Procedure: The cells were stained with […] bodipy-aminoacetaldehyde (BAAA), and then cultured at 37° C. for 45 minutes. An ALDH1 inhibitor, diethyl aminobenzaldehyde (DEAB), was used as the negative control. The stained cells were assayed using BD FACS Aria III. In this case, the positive fluorescent ALDH1-expressed cells (ALDH+) were detected in a green fluorescent channel (520 to 540 nm).
While CD44+/CD24−/low phenotype has often been associated with breast CSC/progenitor cell features, yet there is no correlation between the presence of CD44+/CD24−/low cells and clinical outcome and formation of distant metastases. It is the presence of aldehyde dehydrogenase (ALDH) bright cells which separates highly tumorigenic CD44+/CD24−/low/ALDHbright population from non-tumorigenic cells. Unlike CD44+/CD24−/low, ALDH is a predictor of metastasis and is associated with a poor clinical outcome. The main role of ALDH enzymes is the detoxification of aldehydes generated in various metabolic processes into carboxylic acids. However, several ALDH isoforms are involved in retinoic acid signaling and this particular function was linked to the “stemness” of CSCs. The functional activity of ALDHs can be accurately determined by ascertaining the cellular conversion of […] (BAAA) into a fluorescent molecule BODIPY-aminoacetate (BAA). ATP-binding cassette (ABC)-transporter inhibitors in the assay buffer prevent the efflux of BAA from the cells, resulting in the accumulation of BAA in cytoplasm.

MDA-MB-231 mammospheres [6] = assay: Invasion / dispersion of spheroids into 3D collagen; details: cells incubated with compound 72 hr, FIG. 4
Excerpt: CSCs are associated with highly invasive phenotype and it is believed that this subset of cancer cells gives rise to metastases. In order to monitor the dissemination of MCF-7 and MDA-MB-231 breast cancer spheroids, the spheroids were embedded into three-dimensional (3D) collagen scaffold using Aim Biotech 3D cell culture chips. Collagen with spheroids was introduced into the central region of the microfluidic system where it polymerized via thermal cross-linking. Cell culture media was introduced into media channels forcing spheroids to move through collagen towards the media.
Thus, whether Ru^TEN complexes and salinomycin affected the invasive properties of MDA-MB-231 spheroids was then investigated. To this purpose, MDA-MB-231 monolayer cells were incubated with compounds of interest (e.g., Ru^TEN complexes of Examplel or salinomycin) for 72 hr, then the delamination was allowed to proceed for over 28 hr. Results are depicted in FIG. 4.

[7] = 24 h, MTT, read-out: IC50 (μM) MDA-MB-231 24 h
[8] = 72 h, MTT, read-out: IC50 (μM) MDA-MB-231 72 h

Compound	viability of MDA-MB-231 mammospheres (MDA-MB-231 mammospheres [1])	IC50 (MCF-7; 72 h, MTT) [µM]	IC50 (MDA-MB-231; [7]) [µM]	IC50 (MDA-MB-231; [8]) [µM]	IC50 (MDA-MB-231 mammospheres [2]; 72 h) [µM]	inhibition of mammosphere growth, MCF-7 (MCF-7 mammospheres)	Number of MCF-7 mammospheres (MCF-7 mammospheres)	Size (μm) of MCF-7 mammospheres (MCF-7 mammospheres) [μm]	inhibition of mammosphere growth, MDA-MB-231 (MDA-MB-231 mammospheres [3])	Number of MDA-MB-231 mammospheres (MDA-MB-231 mammospheres [3])	Size (μm) of MDA-MB-231 mammospheres (MDA-MB-231 mammospheres [3]) [μm]	Number of MDA-MB-231 secondary mammospheres [4]	Size (μm) of MDA-MB-231 secondary mammospheres [4] [μm]	reduction of ALDHbright sub-population [5]	decrease in number of MCF-7 mammospheres (MCF-7 mammospheres)	decrease in size of MCF-7 mammospheres (MCF-7 mammospheres)	decrease in number of MDA-MB-231 mammospheres (MDA-MB-231 mammospheres [3])	decrease in size of MDA-MB-231 mammospheres (MDA-MB-231 mammospheres [3])	IC50 (MDA-MB-231 mammospheres [1]) [µM]	propensity to form secondary mammospheres [4]	further results
N.N.[Cl][Pt][Cl] [Cisplatin, cisplatin]	did not affect the viability	22 ± 7	268 ± 78	27 ± 8	> 40	did not show any potency in inhibiting mammosphere growth	273 ± 108	106 ± 14	did not show any potency in inhibiting mammosphere growth	136 ± 44	95 ± 25	67 ± 20	103 ± 30	did not affect ALDHbright cells							antiproliferative activity, MCF-7 (MCF-7; MTT): only moderately active; antiproliferative activity, MDA-MB-231 (MDA-MB-231; MTT): only moderately active
COc1cc([C@@H]2c3cc4c(cc3[C@@H](O[C@@H]3O[C@@H]5CO[C@@H](C)O[C@H]5[C@H](O)[C@H]3O)[C@H]3COC(=O)[C@H]23)OCO4)cc(OC)c1O [Etoposide, etoposide]							237 ± 11	135 ± 6		107 ± 37	123 ± 20	73 ± 22	63 ± 4	52%	10-15%	did not affect the size	10-15%	did not affect the size			IC50 (MCF-7; Homo sapiens, MCF7, 72 h): 0.79 ± 0.21 µM; IC50 (MDA-MB-231; Homo sapiens, MDA-MB-231, 24 h, read-out: IC50 (μM) MDA-MB-231 24 h): > 1000 µM; IC50 (MDA-MB-231; Homo sapiens, MDA-MB-231, 72 h, read-out: IC50 (μM) MDA-MB-231 72 h): 6.4 ± 1.2 µM; IC50 (MDA-MB-231 mammospheres [2]; Homo sapiens, MDA-MB-231, 72 h): > 40 µM
O=C1[O][Pt]2([NH][C@@H]3CCCC[C@H]3[NH]2)[O]C1=O [Oxaliplatin, oxaliplatin]	did not affect the viability	1.1 ± 0.2	348 ± 78	4.6 ± 1	> 40	did not show any potency in inhibiting mammosphere growth	274 ± 93	107 ± 17	did not show any potency in inhibiting mammosphere growth	144 ± 50	99 ± 27	122 ± 10	86 ± 14								
COc1ccc([N+]2=Cc3ccc4ccccc4[n+]3[Ru-]2[Cl])cc1.Cc1c(C)c(C)c(C)c(C)c1C.[Cl-] [Ru^TEN2, [(η6-hexamethylbenzene)RuCl(4-methoxv-N-(2-quinolinyl-methylene)-aniline)]Cl]		4.1 ± 0.9	10 ± 1	2.2 ± 0.3	> 40		255 ± 175	114 ± 24	did not inhibit mammosphere growth	141 ± 41	98 ± 18	186 ± 45	85 ± 15						> 20	only slight changes in size and number of mammospheres	dispersion of cells into collagen after 4 hr (MDA-MB-231 mammospheres [6]): did not exhibit significant dispersion; dispersion of cells into collagen after 28 hr / entire incubation period (MDA-MB-231 mammospheres [6]): only slight dispersion
Cc1c(C)c(C)c(C)c(C)c1C.Clc1cccc([N+]2=Cc3ccc4ccccc4[n+]3[Ru-]2[Cl])c1.[Cl-] [Ru^TEN4, [(η6-Hexamethylbenzene)RuCl(3-chloro-N-(2-quinolinylmethylene)aniline)]Cl]		2.5 ± 0.7	9.2 ± 1.3	1.4 ± 0.3	7.2 ± 1.8		236 ± 88	105 ± 18		118 ± 17	95 ± 37	91 ± 33	70 ± 6		10%	17%	17%	10%	11	drastically reduced propensity to form secondary mammospheres	dispersion of cells into collagen after 4 hr (MDA-MB-231 mammospheres [6]): did not exhibit significant dispersion; dispersion of cells into collagen after 28 hr / entire incubation period (MDA-MB-231 mammospheres [6]): only slight dispersion
abamectin		7 ± 2.2	18 ± 6	6.4 ± 2.3	4 ± 0.5		147 ± 33	77 ± 13		4 ± 1	76 ± 8										
